The values that follow are results of earlier work, collected in patent publication US8278066B2, “Truncated somatostatin receptors” (Board of Regents, The University of Texas System, priority 2001, dated 2012).

In this data set the target is SSTR2 (Homo sapiens, UniProt P30874). As to conditions: reported by Reisine et al. 1993; Raynor et al. 1993; cited from earlier work.
Sequence of SSTR2 (P30874 whole entry, species assumed): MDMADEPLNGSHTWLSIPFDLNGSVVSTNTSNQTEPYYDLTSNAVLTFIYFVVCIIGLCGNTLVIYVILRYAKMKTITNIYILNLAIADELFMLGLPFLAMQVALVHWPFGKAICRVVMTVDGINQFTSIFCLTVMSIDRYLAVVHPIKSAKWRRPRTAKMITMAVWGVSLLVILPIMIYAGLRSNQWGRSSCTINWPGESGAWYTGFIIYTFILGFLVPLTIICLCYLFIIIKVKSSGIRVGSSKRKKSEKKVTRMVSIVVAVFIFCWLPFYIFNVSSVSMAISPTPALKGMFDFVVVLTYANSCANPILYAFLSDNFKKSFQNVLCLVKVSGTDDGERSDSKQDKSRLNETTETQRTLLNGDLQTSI

On to `C[C@@H](O)[C@@H]1NC(=O)[C@H](CCCCN)NC(=O)[C@@H](Cc2c[nH]c3ccccc23)NC(=O)[C@H](Cc2ccccc2)NC(=O)[C@@H](NC(=O)[C@H](N)Cc2ccccc2)CSSC[C@@H](C(=O)N[C@H](CO)[C@@H](C)O)NC1=O` [octreotide], for which the Receptor saturation is 100 nM.
